Results from patent publication US20040086901A1, “Database for analyzing gene function and method of analyzing gene function by dspa” (priority 2000, published 2004).

Columns and labels:
Assay type in all cases: cell-based, mouse
[1] = tested on: NIH3T3 cells overexpressing HSP4O; experiment: MTT cell viability, HSP4O overexpressing cells vs parental line; details: HSP4O high-expressing cells / parental cell line, 3 to 4 days
Outline: (§1)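 Stable NIH3T3 transfectants (cDNA in pRc-CMV-type vector, G-418-selected, high expressers picked by Western blot) and parental cells were seeded at 1×10^5 cells/ml into twofold serial drug dilutions and grown 3–4 days. MTT formazan was read at 574/655 nm, and log ratios of IC40 values were derived.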

[2] = tested on: NIH3T3 cells overexpressing p16/INK4A; experiment: MTT cell viability, p16/INK4A overexpressing cells vs parental line; details: p16/INK4A high-expressing cells / parental cell line, 3 to 4 days
Outline: as §1

[3] = tested on: NIH3T3 cells overexpressing HSP9O; experiment: MTT cell viability, HSP9O overexpressing cells vs parental line; details: HSP9O high-expressing cells / parental cell line, 3 to 4 days
Outline: as §1

[4] = tested on: NIH3T3 cells, TPA (PKC downreg); experiment: MTT cell viability, TPA (PKC downreg) cells vs parental line; details: 3 to 4 days
[5] = tested on: NIH3T3 cells overexpressing erbB2; experiment: MTT cell viability, erbB2 overexpressing cells vs parental line; details: erbB2 high-expressing cells / parental cell line, 3 to 4 days
Outline: as §1

[6] = tested on: NIH3T3 cells overexpressing JNK-DN; experiment: MTT cell viability, JNK-DN overexpressing cells vs parental line; details: JNK-DN high-expressing cells / parental cell line, 3 to 4 days
Outline: as §1

[7] = tested on: NIH3T3 cells overexpressing v-src; experiment: MTT cell viability, v-src overexpressing cells vs parental line; details: v-src high-expressing cells / parental cell line, 3 to 4 days
Outline: as §1

[8] = tested on: NIH3T3 cells overexpressing Ha-ras; experiment: MTT cell viability, drug sensitivity of Ha-ras overexpressing cells vs parental line; details: Ha-ras high-expressing cells / parental cell line, 3 to 4 days
Outline: (§2)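 NIH3T3 high expressers vs parental; 2-fold serial dilution of drugs (DMSO stocks), 9 points; 10% CS-DMEM; 3–4 d culture; MTT 4 h 37 °C, stop with 0.04N HCl/isopropanol; A574/655. Readout is log(IC40 ratio).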

[9] = tested on: NIH3T3 cells overexpressing CaMKIIa; experiment: MTT cell viability, CaMKIIa overexpressing cells vs parental line; details: CaMKIIa high-expressing cells / parental cell line, 3 to 4 days
Outline: as §2

[10] = tested on: NIH3T3 cells overexpressing cAMP-PK-CS; experiment: MTT cell viability, cAMP-PK-CS overexpressing cells vs parental line; details: cAMP-PK-CS high-expressing cells / parental cell line, 3 to 4 days
Outline: as §2

[11] = tested on: NIH3T3 cells overexpressing ERK-DN; experiment: MTT cell viability, ERK-DN overexpressing cells vs parental line; details: ERK-DN high-expressing cells / parental cell line, 3 to 4 days
Outline: as §2

[12] = tested on: NIH3T3 cells overexpressing RhoA; experiment: MTT cell viability, RhoA overexpressing cells vs parental line; details: RhoA high-expressing cells / parental cell line, 3 to 4 days
Outline: as §1

[13] = tested on: NIH3T3 cells overexpressing CP-antisense; experiment: MTT cell viability, CP-antisense cells vs parental line; details: 3 to 4 days
Outline: as §1

[14] = tested on: NIH3T3 cells overexpressing Regucalcin; experiment: MTT cell viability, Regucalcin overexpressing cells vs parental line; details: Regucalcin high-expressing cells / parental cell line, 3 to 4 days
Outline: as §1

[15] = tested on: NIH3T3 cells overexpressing caspase-3; experiment: MTT cell viability, caspase-3 overexpressing cells vs parental line; details: caspase-3 high-expressing cells / parental cell line, 3 to 4 days
Outline: as §2

[16] = tested on: NIH3T3 cells overexpressing PDGF-R; experiment: MTT cell viability, PDGF-R overexpressing cells vs parental line; details: PDGF-R high-expressing cells / parental cell line, 3 to 4 days
Outline: as §1

[17] = tested on: NIH3T3 cells overexpressing DAN; experiment: MTT cell viability, DAN overexpressing cells vs parental line; details: DAN high-expressing cells / parental cell line, 3 to 4 days
Outline: as §1

[18] = tested on: NIH3T3 cells overexpressing PKCalpha-KN; experiment: MTT cell viability, PKCalpha-KN overexpressing cells vs parental line; details: 3 to 4 days
Outline: as §2

[19] = tested on: NIH3T3 cells overexpressing Gluco-corticoid-R; experiment: MTT cell viability, Gluco-corticoid-R overexpressing cells vs parental line; details: Gluco-corticoid-R high-expressing cells / parental cell line, 3 to 4 days
Outline: as §2

[20] = tested on: NIH3T3 cells overexpressing m-calpain; experiment: MTT cell viability, m-calpain overexpressing cells vs parental line; details: m-calpain high-expressing cells / parental cell line, 3 to 4 days
Outline: as §2

[21] = PKCalpha-KN (first of two lines) high-expressing cells / parental cell line
[22] = PKCalpha-KN (second of two lines) high-expressing cells / parental cell line

Row | Compound | logarithmic value of ratio of IC40 values [1] | logarithmic value of ratio of IC40 values [2] | logarithmic value of ratio of IC40 values [3] | logarithmic value of ratio of IC40 values [4] | logarithmic value of ratio of IC40 values [5] | logarithmic value of ratio of IC40 values [6] | logarithmic value of ratio of IC40 values [7] | logarithmic value of ratio of IC40 values [8] | logarithmic value of ratio of IC40 values [9] | logarithmic value of ratio of IC40 values [10] | logarithmic value of ratio of IC40 values [11] | logarithmic value of ratio of IC40 values [12] | logarithmic value of ratio of IC40 values [13] | logarithmic value of ratio of IC40 values [14] | logarithmic value of ratio of IC40 values [15] | logarithmic value of ratio of IC40 values [16] | logarithmic value of ratio of IC40 values [17] | logarithmic value of ratio of IC40 values [18, 21] | logarithmic value of ratio of IC40 values [18, 22] | logarithmic value of ratio of IC40 values [19] | also measured
1 | ICE inhibitor-III [ICEin-3] | 0.11 | 0.15 | 0.22 | −0.09 | 0.18 | 0.00 | −0.14 | 0.32 | 0.00 | 0.00 | 0.00 | 0.19 | −0.19 | 0.00 | 0.13 | 0.20 | 0.00 | 0.12 | 0.33 | 0.00 | logarithmic value of ratio of IC40 values [20]: −0.06
2 | CO[C@H]1[C@@H](OC)C[C@H](C)[C@@H](OC)C2=CC(=O)C=C(NC(=O)/C(C)=C/C=C\[C@H](OC)[C@@H](OC(N)=O)/C(C)=C/[C@@H]1C)C2=O [HMA, herbimycin A] | 0.00 | 0.41 | 0.40 | −0.07 | −0.55 | −0.14 | −0.35 | −0.35 | 0.00 | 0.12 | 0.00 | 0.13 | −0.10 | −0.20 | 0.08 | 0.19 | −0.05 | 0.09 | −0.10 | −0.11 | logarithmic value of ratio of IC40 values [20]: 0.00
3 | COC(=O)[C@@]1(O)C[C@H]2O[C@]1(C)n1c3ccccc3c3c4c(c5c6ccccc6n2c5c31)C(=O)NC4 [K252a] | 0.07 | −0.22 | 0.56 | −0.13 | 0.15 | −0.28 | −0.22 | 0.65 | 0.04 | −0.04 | 0.05 | 0.10 | 0.00 | −0.34 | 0.15 | 0.10 | −0.46 | 0.16 | 0.02 | 0.13 | logarithmic value of ratio of IC40 values [20]: 0.13
4 | CC(=O)OCOC(=O)CN(CC(=O)OCOC(C)=O)c1ccccc1OCCOc1ccccc1N(CC(=O)OCOC(C)=O)CC(=O)OCOC(C)=O [BAPTA-AM] | 0.05 | 0.20 | 0.60 | −0.03 | −0.40 | 0.06 | −0.22 | −0.20 | −0.12 | −0.10 | 0.12 | 0.00 | 0.06 | −0.39 | 0.60 | 0.29 | 0.70 | 0.43 | −0.42 | 0.10 | logarithmic value of ratio of IC40 values [20]: 0.00
5 | O=[As]O [NaAsO2, sodium arsenite] | −0.02 | 0.16 | 0.10 | −0.20 | −0.15 | −0.07 | 0.11 | 0.04 | 0.00 | 0.07 | 0.16 | 0.07 | 0.02 | 0.03 | 0.11 | 0.14 | −0.15 | 0.16 | 0.22 | 0.16 | logarithmic value of ratio of IC40 values [20]: −0.16
